Article PMC9926234, “Iterative computational design and crystallographic screening identifies potent inhibitors targeting the Nsp3 macrodomain of SARS-CoV-2” (Proceedings of the National Academy of Sciences of the …, 2023)
Values joined by “and” are separate entries in the source; they are usually repeats but may differ in a detail not shown here. Equal entries are not always repeated. Where two headings read alike, the source gives them in different places.

What was measured:
[1] = tested on: P-glycoprotein (human MDR1); assay: MDR1-MDCK II cell permeability; conditions: dog, MDCK-MDR1, pH 7.4
MacroD2 = target: T1, MacroD2 (Homo sapiens, UniProt A1Z1Q3); assay: adapted HTRF-based peptide displacement assay (off-target); assay type: binding; conditions: compound at 1 mM
T1 construct: MacroD2_HTRF; HTRF assay; pET22b(+); His6, TEV, Avi; made in house
T1 sequence (A1Z1Q3 with tags, fused parts or gaps): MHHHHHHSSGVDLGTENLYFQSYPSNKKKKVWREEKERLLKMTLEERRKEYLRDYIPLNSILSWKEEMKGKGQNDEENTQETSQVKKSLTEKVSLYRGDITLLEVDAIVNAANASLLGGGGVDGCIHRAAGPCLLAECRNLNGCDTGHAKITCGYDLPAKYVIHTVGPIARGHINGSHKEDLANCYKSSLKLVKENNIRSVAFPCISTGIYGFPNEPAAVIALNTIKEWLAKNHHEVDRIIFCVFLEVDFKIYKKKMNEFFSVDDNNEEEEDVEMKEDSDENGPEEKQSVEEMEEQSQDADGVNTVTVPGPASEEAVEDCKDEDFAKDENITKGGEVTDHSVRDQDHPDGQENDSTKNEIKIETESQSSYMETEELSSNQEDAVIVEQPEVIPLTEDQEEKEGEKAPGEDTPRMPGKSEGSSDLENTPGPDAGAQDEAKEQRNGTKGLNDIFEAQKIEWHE

SARS-CoV-2 NSP3 Mac1 [2] = target: T2, SARS-CoV-2 NSP3 Mac1 (Severe acute respiratory syndrome coronavirus 2, UniProt P0DTD1); assay type: binding; set-up: contains a conserved macrodomain enzyme (Mac1)
Method in brief: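 ΔTma values are thermal shifts relative to a co-located DMSO-only control, read with 5 µM Fluorescent Yellow dye. Each compound was tested in triplicate over seven concentrations (two-fold steps, top 1,000 or 100 μM). Spearman correlation of concentration versus ΔTma tested whether the shift was dose-responsive.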

TARG1 = target: T3, TARG1 (Homo sapiens, UniProt Q9Y530); assay: adapted HTRF-based peptide displacement assay (off-target); assay type: binding
T3 construct: Targ1_HTRF; HTRF assay; pET22b(+); His6, TEV; 1-153; made in house
T3 sequence (Q9Y530 with tags, fused parts or gaps): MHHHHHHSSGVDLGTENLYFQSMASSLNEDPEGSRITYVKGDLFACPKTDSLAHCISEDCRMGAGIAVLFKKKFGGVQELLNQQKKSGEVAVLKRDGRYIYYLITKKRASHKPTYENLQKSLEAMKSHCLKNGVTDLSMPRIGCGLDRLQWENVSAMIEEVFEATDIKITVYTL

MDR1-MDCKII cells = assay: MDR1-MDCK II cell permeability; conditions: MDR1-MDCKII cells
SARS-CoV-2 NSP3 Mac1 [3] = target: T2, SARS-CoV-2 NSP3 Mac1; assay type: binding
SARS-CoV-2 NSP3 Mac1 [4] = target: T2, SARS-CoV-2 NSP3 Mac1; assay: biochemical; assay type: binding; conditions: for IC50: read-out: IC50
SARS-CoV-2 NSP3 Mac1 [5] = target: T2, SARS-CoV-2 NSP3 Mac1; set-up: method as in PMID 33853786; conditions: cited from earlier work

## CC(C(=O)O)c1cccc(C(=O)c2ccccc2)c1 (stereo not drawn) [Ketoprofen]
[1]
  Papp A→B at 90 min, 10 µM: 17.6 ± 2.5 ×10⁻⁶ cm/s
  Papp B→A at 90 min, 10 µM: 16.1 ± 0.5 ×10⁻⁶ cm/s

## O=C(O)C1(F)CN(c2ncnc3[nH]c4cc(F)ccc4c23)CC12CCC2 (stereo not drawn) [LL1_0023]
MacroD2
  displacement of the ADPr-conjugated peptide (off-target activity): 50%
SARS-CoV-2 NSP3 Mac1 [2]; DSF dose responsiveness, 1 µM nsp3 mac1, adj p given
  Spearman est (compound concentration vs apparent Tm): 0.98
SARS-CoV-2 NSP3 Mac1 [2]; maximal thermal upshift
  DSF max dTma: 4.53 ˚C
TARG1; compound at 50 µM
  displacement of the ADPr-conjugated peptide (off-target activity): active
TARG1; compound at 1 mM
  displacement of the ADPr-conjugated peptide (off-target activity): 50%
MDR1-MDCKII cells
  permeability relative to the Z8539 scaffold: 3 fold
SARS-CoV-2 NSP3 Mac1 [3]; PanDDA 1-BDC value of the event, crystal soak, compound concentration 100 mM, per dataset
  1-BDC: 0.28
SARS-CoV-2 NSP3 Mac1 [3]; PanDDA event map, 1 minus background density correction, crystal soaking of Mac1
  1-BDC (PanDDA): 0.16
SARS-CoV-2 NSP3 Mac1 [3]; crystal soak, compound concentration 100 mM, per dataset
  PanDDA hit?: TRUE
SARS-CoV-2 NSP3 Mac1 [3]; ligand modeled from this dataset, compound concentration 100 mM
  Modeled?: TRUE
SARS-CoV-2 NSP3 Mac1 [3]; ligand occupancy after refinement (phenix.refine), crystal soaking of Mac1
  Refined occupancy: 32
SARS-CoV-2 NSP3 Mac1 [3]; true hit = binding in crystallographic soaking or the HTRF-based binding assay
  HIT*: Y
SARS-CoV-2 NSP3 Mac1 [4]; HTRF ADPr-peptide displacement from SARS-CoV-2 Mac1
  IC50: 6 to 10 µM and 5.8 to 10.9 µM
SARS-CoV-2 NSP3 Mac1 [4]; HTRF
  IC50: 5.8 µM and 10.9 µM
SARS-CoV-2 NSP3 Mac1 [4]; Ki estimation from HTRF-derived IC50, Cheng-Prusoff, peptide 400nM, Kd 2.68µM, read-out: Ki***
  Ki: 5 µM and 9.5 µM

## Nc1ccc(C(=O)O)cc1 [ZINC920, 4-aminobenzoic acid]
SARS-CoV-2 NSP3 Mac1 [5]
  binding to Mac1 in the fragment screen, result in words: did not bind
